Measurements reported in patent US10730895B2, “Carbidopa prodrug” (AbbVie Inc., priority 2014, dated 2020).

How the values were obtained:
[1] = In vitro bioconversion study, kidney S9 fraction (rat); type: in vitro ADME; settings: rat kidney S9 fraction 1 mg/mL
Description: (§1) The in vitro bioconversion of the L-dopa phosphate prodrugs to L-dopa and the carbidopa phosphate prodrugs to carbidopa was evaluated in several studies. In brief, the L-dopa and carbidopa phosphate prodrugs (2.5 ug/mL) were incubated with tissue homogenate or fractions from rats, mini-pigs, or human, including blood, skin homogenate (3 mg/mL), liver microsomes (1 mg/mL), liver S9 fraction (1 mg/mL), kidney S9 fraction (1 mg/mL), and intestine S9 fractions (1 mg/mL). The reaction mixtures were incubated at 37° C. for 5 to 6 time points within 1 to 2 hours. At the end of each time point, the reaction mixtures were quenched by 2 to 3 volumes of 5% trichloroacetic acid in water. After quenching, the mixtures were centrifuged at 3000 rpm for 20 minutes, and the supernatants were analyzed by LC-MS for quantitation of the prodrug, L-dopa or carbidopa. The in vitro bioconversion was assessed by monitoring both time-dependent depletion of the prodrug and the formation of the corresponding L-dopa or carbidopa.

[2] = In vitro bioconversion study, skin homogenates (mini-pig); type: in vitro ADME; settings: for L-Dopa or Carbidopa Formation: mini-pig skin homogenate; for T1/2 / half-life at 2.5 ug/mL: mini-pig skin homogenate 3 mg/mL, 37° C.; for half-life at 2.5 ug/mL: minipig
Description: (§2) In brief, the L-dopa and carbidopa phosphate prodrugs (2.5 ug/mL) were incubated with tissue homogenate or fractions from rats, mini-pigs, or human, including blood, skin homogenate (3 mg/mL), liver microsomes (1 mg/mL), liver S9 fraction (1 mg/mL), kidney S9 fraction (1 mg/mL), and intestine S9 fractions (1 mg/mL). The reaction mixtures were incubated at 37° C. for 5 to 6 time points within 1 to 2 hours. At the end of each time point, the reaction mixtures were quenched by 2 to 3 volumes of 5% trichloroacetic acid in water. After quenching, the mixtures were centrifuged at 3000 rpm for 20 minutes, and the supernatants were analyzed by LC-MS for quantitation of the prodrug, L-dopa or carbidopa. The in vitro bioconversion was assessed by monitoring both time-dependent depletion of the prodrug and the formation of the corresponding L-dopa or carbidopa.

[3] = In vitro bioconversion study, kidney S9 fraction (human); type: in vitro ADME; settings: human kidney S9 fraction 1 mg/mL
Description: as §1

[4] = In vitro bioconversion study, intestinal S9 fractions (rat); type: in vitro ADME; settings: for L-Dopa or Carbidopa Formation: rat intestinal S9 fraction; for half-life at 2.5 ug/mL: rat intestinal S9 fraction 1 mg/mL
Description: as §1

[5] = In vitro bioconversion study, skin homogenates (human); type: in vitro ADME; settings: for L-Dopa or Carbidopa Formation: human skin homogenate; for T1/2 / half-life at 2.5 ug/mL: human skin homogenate 3 mg/mL, 37° C.
Description: as §1

[6] = In vitro bioconversion study, blood (mini-pig); type: in vitro ADME; settings: for T1/2 / half-life at 2.5 ug/mL: prodrug 2.5 ug/mL, 37° C.; for half-life at 2.5 ug/mL: minipig
Description: as §2

[7] = In vitro bioconversion study, skin homogenates (rat); type: in vitro ADME; settings: for L-Dopa or Carbidopa Formation: rat skin homogenate; for T1/2 / half-life at 2.5 ug/mL: rat skin homogenate 3 mg/mL, 37° C.
Description: as §2

[8] = In vitro bioconversion study, intestinal S9 fractions (human); type: in vitro ADME; settings: for L-Dopa or Carbidopa Formation: human intestinal S9 fraction; for half-life at 2.5 ug/mL: human intestinal S9 fraction 1 mg/mL
Description: as §1

[9] = 1-day stability study of individual prodrugs in aqueous solution; type: physicochemical; settings: aqueous solution 80 μg/mL, ambient storage
Description: The L-dopa phosphate prodrugs and the carbidopa phosphate prodrugs were evaluated in a stability study.

[10] = In vitro bioconversion study, human liver microsomes; type: in vitro ADME; settings: human liver microsomes 1 mg/mL
Description: as §1

[11] = In vitro bioconversion study, blood (human); type: in vitro ADME; settings: for T1/2 / half-life at 2.5 ug/mL: prodrug 2.5 ug/mL, 37° C.
Description: as §2

[12] = In vitro bioconversion study, liver S9 fraction (rat); type: in vitro ADME; settings: rat liver S9 fraction 1 mg/mL
Description: as §1

[13] = Solubility study in water by visual assessment; type: physicochemical; settings: for solubility: thermodynamic from solid, water, ambient
Description: The L-dopa phosphate prodrugs and the carbidopa phosphate prodrugs were evaluated in a solubility study. The solubility values of the phosphate prodrugs in water under ambient conditions were determined by visual assessment. Table 13-A reports the results of the study, including the measured values for L-dopa and carbidopa.

[14] = In vitro bioconversion study, liver S9 fraction (human); type: in vitro ADME; settings: human liver S9 fraction 1 mg/mL
Description: as §1

[15] = In vitro bioconversion study, blood (rat); type: in vitro ADME; settings: for half-life at 2.5 ug/mL: prodrug 2.5 ug/mL, 37° C.
Description: as §2

[16] = 1-day stability study, diphosphate combination solution; type: physicochemical; settings: combined solution L-dopa 3′,4′-diphosphate 35 mg/mL + carbidopa 3′,4′-diphosphate 8.7 mg/mL, pH 6.2, room temperature, nitrogen purged
Description: In addition, a solution combining the diphosphates of each compound (L-dopa 3′, 4′-diphosphate at 35 mg/mL and carbidopa 3′, 4′-diphosphate at 8.7 mg/mL) was monitored over one day at room temperature. This sample was purged with nitrogen to remove oxygen.

[17] = In vitro bioconversion study, liver S9 fraction (mini-pig); type: in vitro ADME; settings: mini-pig liver S9 fraction 1 mg/mL
Description: as §1

[18] = Carbidopa diphosphate pharmacokinetics study in mini-pigs; type: in vivo; settings: for Estimated Conversion % (Based on Carbidopa AUC): mini-pig, SC, dose 8.5 mg/kg
Description: The in vivo conversion of the carbidopa diphosphate to carbidopa was evaluated in a mini-pig pharmacokinetics study in which the prodrug was administered in aqueous solution subcutaneously to a group of three mini-pigs. For comparison, a pharmacokinetics study with carbidopa also was conducted to help assess the in vivo conversion of the carbidopa prodrugs. The estimated in vivo conversion of the carbidopa diphosphate to carbidopa was approximately 100%, based on the carbidopa exposures.

[19] = mini-pig, 15:1 combination 48/3.2 mg/kg
Description: In this study, the pig received a 16-hour subcutaneous infusion of a combination of the L-dopa 4′-monophosphate and the carbidopa 4′-monophosphate together in an aqueous solution at a dose ratio of 15:1 without an initial bolus dose. The doses were 48/3.2 mg/kg for L-dopa 4′-monophosphate and the carbidopa 4′-monophosphate, respectively.

[20] = type: in vivo, rats; settings: rat, 4:1 combination, SC bolus 60/14 mg/kg then SC infusion 300/71 mg/kg
Description: After 1.5 hours, the combination was dosed again via continuous infusion at a dose of 300/71 mg/kg over next 14.5 hours. Blood samples were collected at 0, 0.25, 1, 6, 16, and 24 hours post dose. […] FIG. 7 provides a time-concentration profile for L-dopa and L-dopa 4′-monophosphate blood levels after administration of the combination of 4′-monophosphate prodrugs at a 4:1 ratio. […] Steady state concentration of ˜1 μg/mL was maintained over the infusion period for carbidopa. […] FIG. 9 provides a time-concentration profile for carbidopa and carbidopa 4′-monophosphate blood levels after administration of the combination of 4′-monophosphate prodrugs at a 4:1 ratio.

[21] = 7-day stability study, 4′-monophosphate combination solution; type: physicochemical; settings: combined solution L-dopa 4′-monophosphate 200 mg/mL + carbidopa 4′-monophosphate 50 mg/mL, pH 7.4, room temperature
Description: In addition, a solution combining the L-dopa 4′-monophosphate at 200 mg/mL and carbidopa 4′-monophosphate at 50 mg/mL was monitored over 7 days at room temperature. These samples were prepared with and without purging with nitrogen to remove oxygen.

[22] = Pharmacokinetic study in rats, individual prodrug IV or SC; type: in vivo, Sprague-Dawley rats; settings: rat; for AUC: male, Sprague-Dawley, plasma, dose 1.25 mg/kg, L-dopa and carbidopa in aqueous solution, read-out: Carbidopa AUCO-8 h; for Estimated Conversion % (Based on L-dopa AUC): dose 8.5 mg/kg
Description: For comparison, a rat pharmacokinetics study with L-dopa and carbidopa was conducted to help assess the in vivo conversion of the prodrugs. The study design and measured exposures of L-dopa and carbidopa are summarized in Tables 16-A and 16-B, respectively. In brief, groups of three male Sprague-Dawley rats were given (1) L-dopa and carbidopa in aqueous solution, or (2) the individual prodrug in aqueuous solution intravenously or subcutaneously. Blood samples were collected at multiple time points over 24 hours into a collection tube containing NaAsO4, EDTA, and ascorbic acid. […] The supernatants were subjected to LC-MS analysis for quantitation of prodrug, L-dopa or carbidopa.

[23] = Local tolerability, single SC bolus in rats; type: in vivo; settings: concentrations up to 125 mg/mL
[24] = listed as 3′,4′-diphosphate prodrug of carbidopa
[25] = listed as diphosphate prodrug of carbidopa

| Compound | stability and L-dopa or carbidopa formation [1] | L-Dopa or Carbidopa Formation [2] | T1/2 [2] | stability and L-dopa or carbidopa formation [3] | L-Dopa or Carbidopa Formation [4] | half-life at 2.5 ug/mL [4] | L-Dopa or Carbidopa Formation [5] | L-Dopa or Carbidopa Formation [6] | L-Dopa or Carbidopa Formation [7] | L-Dopa or Carbidopa Formation [8] | half-life at 2.5 ug/mL [8] | stability and L-dopa or carbidopa formation [10] | L-Dopa or Carbidopa Formation [11] | stability and L-dopa or carbidopa formation [12] | stability and L-dopa or carbidopa formation [14] | L-Dopa or Carbidopa Formation [15] | half-life at 2.5 ug/mL [15] | stability and L-dopa or carbidopa formation [17] | half-life at 2.5 ug/mL [6] | half-life at 2.5 ug/mL [11] | further results |
| --- | --- | --- | --- | --- | --- | --- | --- | --- | --- | --- | --- | --- | --- | --- | --- | --- | --- | --- | --- | --- | --- |
| C[C@@](Cc1ccc(OP(=O)(O)O)c(OP(=O)(O)O)c1)(NN)C(=O)O [Carbidopa 3′,4′-diphosphate] | stable without formation of L-dopa or carbidopa observed | No | stable | stable without formation of L-dopa or carbidopa observed | Yes | 1.32 h | No | No | No | Yes | 0.525 h | stable without formation of L-dopa or carbidopa observed | No | stable without formation of L-dopa or carbidopa observed | stable without formation of L-dopa or carbidopa observed | Yes | 0.883 h | stable without formation of L-dopa or carbidopa observed | – | – | T1/2 [5]: stable; T1/2 [6, 24]: stable; T1/2 [6, 25]: not dephosphorylated; T1/2 [7]: stable; % Remaining After One Day ([9]; pH 6.8): >97%; T1/2 [11, 24]: stable; T1/2 [11, 25]: not dephosphorylated; solubility ([13]; pH 5.5, amorphous): > 247 mg/mL; % Remaining After One Day [16]: >99%; Estimated Conversion % (Based on Carbidopa AUC) [18, 24]: 100%; Estimated Conversion % (Based on Carbidopa AUC) ([18]; listed as carbidopa diphosphate): approximately 100% |
| C[C@@](Cc1ccc(O)c(OP(=O)(O)O)c1)(NN)C(=O)O [Carbidopa 3′-phosphate, Carbidopa 3′-monophosphate] | – | Yes | – | – | – | – | Yes | Yes | Yes | – | – | – | Yes | – | – | Yes | 0.342 h | – | 0.148 h | 0.967 h | half-life at 2.5 ug/mL [2]: 6.88 h; half-life at 2.5 ug/mL [5]: 10 h; half-life at 2.5 ug/mL [7]: 12.1 h; % Remaining After One Day ([9]; pH 6.5): >94%; solubility ([13]; pH 7.1, amorphous): > 96 mg/mL |
| C[C@@](Cc1ccc(OP(=O)(O)O)c(O)c1)(NN)C(=O)O [Carbidopa 4′-phosphate, Carbidopa 4′-monophosphate] | stable without formation of L-dopa or carbidopa observed | Yes | – | stable without formation of L-dopa or carbidopa observed | Yes | 1.23 h | Yes | Yes | Yes | Yes | 0.402 h | stable without formation of L-dopa or carbidopa observed | Yes | stable without formation of L-dopa or carbidopa observed | stable without formation of L-dopa or carbidopa observed | Yes | 0.248 h | stable without formation of L-dopa or carbidopa observed | 0.147 h | 1.08 h | Exposure of the remaining carbidopa 4′-monophosphate, % of the carbidopa exposure [19]: ~22%; Exposure of the remaining carbidopa 4′-monophosphate, % of carbidopa [20]: ~8%; half-life at 2.5 ug/mL [2]: 1.9 h; half-life at 2.5 ug/mL [5]: 2.3 h; half-life at 2.5 ug/mL [7]: 4.52 h; % Remaining After One Day ([9]; pH 6.8): >98%; % Remaining After 7 Days ([21]; Nitrogen Purged): >99%; % Remaining After 7 Days ([21]; Non-Purged): >97%; solubility compared to L-dopa and carbidopa ([13]; FIG. 1, pH of 7.4): increased solubility; solubility ([13]; pH 7.4, L-dopa 4′-phosphate crystalline, carbidopa 4′-phosphate amorphous): > 200 mg/mL |
| C[C@@](Cc1ccc(O)c(O)c1)(NN)C(=O)O [Carbidopa, (2S)-3-(3,4-dihydroxyphenyl)-2-hydrazino-2-methylpropanoic acid] | – | – | – | – | – | – | – | – | – | – | – | – | – | – | – | – | – | – | – | – | AUC ([22]; IV): 860 ng·h/mL; AUC ([22]; SC): 685 ng·h/mL; solubility ([13]; pH 4-7, crystalline (carbidopa: crystalline monohydrate)): < 4 mg/mL; AUC ([18]; minipig, in vivo, sc, 2 mg/kg): 1610 ng·h/mL |
| N[C@@H](Cc1ccc(OP(=O)(O)O)c(OP(=O)(O)O)c1)C(=O)O [L-dopa 3′,4′-diphosphate] | stable without formation of L-dopa or carbidopa observed | No | stable | stable without formation of L-dopa or carbidopa observed | Yes | 0.903 h | No | Yes | No | Yes | 1.53 h | stable without formation of L-dopa or carbidopa observed | Yes | stable without formation of L-dopa or carbidopa observed | stable without formation of L-dopa or carbidopa observed | Yes | 0.1 h | stable without formation of L-dopa or carbidopa observed | 2.08 h | 2.3 h | T1/2 [5]: stable; Estimated Conversion % (Based on L-dopa AUC) ([22]; IV): >100%; Estimated Conversion % (Based on L-dopa AUC) ([22]; SC): >100%; local intolerance (clinical signs, microscopic findings) [23]: no adverse clinical signs or microscopic findings indicative of local intolerance; T1/2 [7]: stable; % Remaining After One Day ([9]; pH 7.0): >99%; solubility ([13]; pH 5.5, amorphous): > 330 mg/mL; % Remaining After One Day [16]: >99% |
